Test results from PubChem BioAssay (NCI).
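Exposure lasted 48 hours, with cells grown in 96-well plates and compounds tested at five concentrations. TGI: total growth inhibition.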

Legend:
Experiment in all cases: NCI tumour cell line growth inhibition, 48 h
[1] = system: A498 renal
[2] = system: DU-145 prostate
[3] = system: HOP-62 NSCLC
[4] = system: HT29 colon
[5] = system: KM12 colon
[6] = system: MCF7 breast
[7] = system: MDA-MB-435
[8] = system: SN12C renal
[9] = system: SW-620 colon
[10] = system: UACC-62 melanoma
[11] = system: TK-10 renal

COc1ccc(C2=Nc3c(nc(OC)[nH]c3=O)NC(c3ccccc3)C2)cc1 (stereo not drawn)
TGI [1]: > 100 µM | TGI [2]: > 100 µM | TGI [3]: > 100 µM | TGI [4]: > 100 µM | TGI [5]: 36.3 µM | TGI [6]: 68.2 µM | TGI [7]: > 100 µM | TGI [8]: 62.6 µM | TGI [9]: 72.4 µM | TGI [10]: > 100 µM

O=C(NCCN1CCCCC1)c1ccc(Br)cc1
TGI [1]: > 100 µM | TGI [2]: > 100 µM | TGI [3]: > 100 µM | TGI [4]: > 100 µM | TGI [5]: > 100 µM | TGI [6]: > 100 µM | TGI [7]: > 100 µM | TGI [8]: > 100 µM | TGI [9]: > 100 µM | TGI [11]: > 100 µM

O=C1CN(c2ccccc2)Cc2nc(Cl)ccc2N1
TGI [2]: > 100 µM | TGI [3]: > 100 µM | TGI [4]: > 100 µM | TGI [5]: > 100 µM | TGI [6]: > 100 µM | TGI [7]: > 100 µM | TGI [8]: > 100 µM | TGI [9]: > 100 µM | TGI [11]: > 100 µM | TGI [10]: > 100 µM

CC(=O)Nc1[nH]n(C)c(=O)c1-c1nnc(C)s1
TGI [1]: > 100 µM | TGI [3]: > 100 µM | TGI [4]: > 100 µM | TGI [5]: > 100 µM | TGI [8]: > 100 µM | TGI [9]: > 100 µM | TGI [11]: > 100 µM

COc1ccc(N2C(=O)c3c(c4[nH]c5ccccc5c4c4ccc(C(C)(C)C)cc34)C2=O)cc1
TGI [1]: 77.1 µM | TGI [3]: > 100 µM | TGI [5]: > 100 µM | TGI [8]: > 100 µM | TGI [9]: > 100 µM | TGI [11]: > 100 µM | TGI [10]: 48.3 µM

CC1=NN(c2nc(N)nc(NS(=O)(=O)c3cc(C)c(Cl)cc3S)n2)C(C)(C)C1
TGI [1]: > 10 µM | TGI [2]: > 10 µM | TGI [3]: > 10 µM | TGI [4]: > 10 µM | TGI [5]: > 10 µM | TGI [6]: > 10 µM | TGI [8]: > 10 µM | TGI [9]: > 10 µM | TGI [11]: > 10 µM

Cc1ccc(/C=C2\Sc3scc(-c4ccccc4)[n+]3C2=O)cc1
TGI [2]: > 65.9 µM | TGI [3]: > 100 µM | TGI [4]: 56.9 µM | TGI [5]: > 49.5 µM | TGI [6]: > 100 µM | TGI [7]: > 44.3 µM | TGI [8]: > 54.2 µM | TGI [9]: > 52.4 µM | TGI [11]: 53.1 µM | TGI [10]: 45.6 µM

COc1ccc(Nc2nc3ccccc3n3cccc23)cc1OC
TGI [1]: 55.8 µM | TGI [2]: 35.6 µM | TGI [3]: 32.7 µM | TGI [4]: > 100 µM | TGI [5]: 29.1 µM | TGI [6]: 29.6 µM | TGI [7]: 26.7 µM | TGI [9]: 36.6 µM | TGI [11]: 39 µM | TGI [10]: 27.4 µM

O=Cc1c[nH]c2c(=O)[nH]cnc12
TGI [3]: > 100 µM | TGI [4]: > 100 µM | TGI [5]: > 100 µM | TGI [8]: > 100 µM | TGI [9]: > 100 µM | TGI [11]: > 100 µM | TGI [10]: > 100 µM

CO/C(N)=C(\C#N)N=Cc1ccc2ccccc2c1
TGI [1]: > 100 µM | TGI [2]: > 100 µM | TGI [3]: > 100 µM | TGI [4]: > 100 µM | TGI [5]: > 100 µM | TGI [7]: > 100 µM | TGI [8]: > 100 µM | TGI [9]: > 100 µM | TGI [11]: > 100 µM | TGI [10]: > 100 µM

CC(C)(C)N=CN1C=Cc2nc3ccccc3cc2C1
TGI [1]: > 100 µM | TGI [3]: > 100 µM | TGI [4]: > 100 µM | TGI [5]: > 100 µM | TGI [8]: > 100 µM | TGI [9]: 49.2 µM | TGI [11]: > 100 µM | TGI [10]: > 100 µM

CC(C)[C@@H]1CC[C@@H](C)C[C@H]1OC(=O)c1c2n(c3ccccc13)C[C@H]1OC(C)(C)O[C@@H]21
TGI [2]: > 100 µM | TGI [3]: > 100 µM | TGI [4]: > 100 µM | TGI [5]: > 100 µM | TGI [6]: > 100 µM | TGI [7]: > 100 µM | TGI [8]: > 100 µM | TGI [9]: > 100 µM | TGI [11]: 60.7 µM | TGI [10]: > 100 µM

CCCCCCCC/C=C1\CCC(CN(C)C)C1=O (stereo not drawn)
TGI [1]: 30.7 µM | TGI [3]: 24.7 µM | TGI [4]: 12.5 µM | TGI [5]: 7.09 µM | TGI [8]: 14.6 µM | TGI [9]: 8.69 µM | TGI [11]: 6.03 µM | TGI [10]: 19.6 µM

CCOC(=O)N/N=C(/N)c1cccc(Br)c1
TGI [2]: > 100 µM | TGI [3]: > 100 µM | TGI [4]: > 100 µM | TGI [5]: > 100 µM | TGI [6]: > 100 µM | TGI [8]: > 100 µM | TGI [11]: > 100 µM | TGI [10]: > 100 µM

CC(C)(C)OC(=O)NC1CCCC1C(=O)C1=CCCC1 (stereo not drawn)
TGI [1]: > 100 µM | TGI [2]: > 100 µM | TGI [3]: > 100 µM | TGI [4]: > 100 µM | TGI [5]: > 100 µM | TGI [7]: > 100 µM | TGI [8]: > 100 µM | TGI [9]: > 100 µM | TGI [10]: > 100 µM

C[C@]12C=CC(=O)C=C1CC[C@@H]1[C@@H]2CC[C@@]2(C)[C@H]1CC[C@]2(O)C(N)=O
TGI [1]: > 100 µM | TGI [2]: > 100 µM | TGI [3]: > 100 µM | TGI [4]: > 100 µM | TGI [5]: > 100 µM | TGI [7]: > 100 µM | TGI [8]: > 100 µM | TGI [9]: > 100 µM | TGI [11]: > 100 µM | TGI [10]: > 100 µM

O=C1N=C2SC=C(NC(=S)Nc3ccccc3)N2NC12c1ccccc1-c1ccccc12
TGI [2]: > 10 µM | TGI [3]: > 10 µM | TGI [4]: > 10 µM | TGI [5]: > 10 µM | TGI [6]: > 10 µM | TGI [7]: > 10 µM | TGI [8]: > 10 µM | TGI [9]: > 10 µM | TGI [11]: > 10 µM | TGI [10]: > 10 µM

CCOC(=O)c1c2ccc(/C=C/c3ccccn3)ccc-2c(C(=O)OCC)c1N
TGI [1]: > 100 µM | TGI [4]: > 100 µM | TGI [5]: > 100 µM | TGI [9]: > 100 µM | TGI [11]: > 100 µM | TGI [10]: > 100 µM

Nc1nc(NNc2cccc(F)c2)cc(=O)[nH]1
TGI [1]: > 100 µM | TGI [2]: > 100 µM | TGI [3]: 58.5 µM | TGI [4]: 54.6 µM | TGI [5]: 56.8 µM | TGI [6]: 89.1 µM | TGI [7]: 64.9 µM | TGI [8]: > 100 µM | TGI [9]: > 100 µM | TGI [11]: > 100 µM

CN(C)CCN(C)P12(Oc3ccccc3O1)Oc1c(Cl)c(Cl)c(Cl)c(Cl)c1O2
TGI [1]: > 100 µM | TGI [2]: > 100 µM | TGI [3]: > 100 µM | TGI [4]: > 100 µM | TGI [6]: > 100 µM | TGI [7]: > 100 µM | TGI [8]: > 100 µM | TGI [9]: > 100 µM | TGI [11]: > 100 µM | TGI [10]: > 100 µM

COC(=O)C1(NC(=O)C(Cc2ccccc2)N(C(=O)OC(C)(C)C)C(=O)OC(C)(C)C)CCCC1 (stereo not drawn)
TGI [1]: > 100 µM | TGI [2]: > 100 µM | TGI [3]: > 100 µM | TGI [6]: 64.6 µM | TGI [7]: > 100 µM | TGI [8]: > 100 µM | TGI [9]: > 100 µM | TGI [11]: > 100 µM | TGI [10]: > 100 µM

CCOC1OC(CO)C(O)CC1n1ccc(=O)[nH]c1=O (stereo not drawn)
TGI [1]: > 100 µM | TGI [2]: > 100 µM | TGI [4]: > 100 µM | TGI [5]: > 100 µM | TGI [6]: > 100 µM | TGI [7]: > 100 µM | TGI [8]: > 100 µM | TGI [9]: > 100 µM | TGI [11]: > 100 µM | TGI [10]: > 100 µM

COc1ccc(/C=c2\c(=O)[nH]c3nc4ccccc4c(=O)n23)cc1
TGI [2]: > 100 µM | TGI [3]: > 100 µM | TGI [4]: > 100 µM | TGI [5]: > 100 µM | TGI [6]: > 100 µM | TGI [7]: > 100 µM | TGI [8]: > 100 µM | TGI [9]: > 100 µM | TGI [11]: > 100 µM | TGI [10]: > 100 µM
